Experimental data: patent US20060235062A1, “Novel heterocyclic analogs of diphenylethylene compounds” (THERACOS, INC., priority 2002, published 2006)
Like-named read-outs stand apart in the source and are kept apart here.

Tests used:
Human PPAR-γ2 = biological target: T1, Human PPAR-γ2 (Homo sapiens, UniProt P37231); experiment: PPAR-gamma mediated transactivation of PPRE-luciferase reporter; type: cell-based
T1 construct: inserting the PPARγ2 cDNA coding region into pcDNA3.1+ vector; expressed in transfected cells; host or cells: HEK293 cells (ATCC)
T1 sequence (P37231 1-505): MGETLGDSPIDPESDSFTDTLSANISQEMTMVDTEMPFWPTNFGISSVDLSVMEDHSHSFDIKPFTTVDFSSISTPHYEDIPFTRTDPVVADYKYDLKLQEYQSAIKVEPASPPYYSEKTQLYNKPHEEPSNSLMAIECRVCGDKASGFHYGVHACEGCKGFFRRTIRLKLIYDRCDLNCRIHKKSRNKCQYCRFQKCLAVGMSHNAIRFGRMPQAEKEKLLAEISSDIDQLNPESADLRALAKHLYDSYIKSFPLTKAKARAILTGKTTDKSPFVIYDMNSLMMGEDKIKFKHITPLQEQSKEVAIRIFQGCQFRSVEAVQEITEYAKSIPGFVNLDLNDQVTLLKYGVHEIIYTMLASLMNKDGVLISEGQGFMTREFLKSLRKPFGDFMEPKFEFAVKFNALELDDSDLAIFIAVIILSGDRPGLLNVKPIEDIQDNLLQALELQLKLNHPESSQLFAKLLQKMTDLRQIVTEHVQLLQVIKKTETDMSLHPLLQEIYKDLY
Description: Human PPAR-γ2 expression vector was constructed by inserting PPAR-γ2 encoding region into pcDNA3.1+ vector (Invitrogen, Carlsbad, Calif.). Luciferase reporter vector was constructed by ligating PPRE response element adjacent to the upstream of Firefly luciferase coding region. Control vector, pRL-SV40 expressing Renilla luciferase was purchased from Promega (Madison, Wis.).
About 2.7×10^4 293 cells (ATCC, Manassas, Va.) were plated into a 35 mm culture well and maintained in Eagle's Minimal Essential Medium (ATCC, Manassas, Va.) supplemented with 10% heat inactivated horse serum (ATCC, Manassas, Va.) for 24 hours. Expression, reporter and control vectors (2.5 ng control and 100 ng others per culture well) were transfected by LI[…]™ Reagent (Invitrogen, Carlsbad, Calif.). Transfection reagent and DNA were prepared according to manufacture's recommendations and incubated with cells for 3 hours followed by adding equal volume EMEM supplemented with 20% horse serum. Twenty-four hours after transfection, cells were treated with vehicle or compounds at indicated final concentration for 24 hours. Final concentration of vehicle was 0.001% DMSO (Sigma, ST Louis, Mo.) in medium. Vehicle and compound treatment were all conducted in triplicate. Each culture well was then assayed for a response characterized by increased Firefly luciferase activity normalized with Renilla luciferase activity.
Assays for Firefly luciferase activity and Renilla luciferase activity followed the standard protocol of Dual-luciferase Reporter® Assay System (Promega, Madison, Wis.). Briefly, 400 μl Passive Lysis Buffer was added into each culture well and all wells were placed on a shaker for 15 minutes. Five μl cell lysate of each well was added to a reaction tube. Luciferase reagent II and Stop & Glo® were injected into the reaction tube sequentially by Sirius Luminometer (Berthold Detection Systems, Pforzheim, Germany). Final reporter activity was calculated as the ratio of Firefly luciferase activity over by Renilla luciferase activity.
Human PPARγ2 expression vector was constructed by inserting the PPARγ2 cDNA coding region into pcDNA3.1+ vector (Invitrogen, Carlsbad, Calif.). The PPRE-luciferase reporter gene was the kind gift of Dr. Kenneth Feingold. The control vector, pRL-SV40 containing the Renilla luciferase cDNA was purchased from Promega (Madison, Wis.). About 2.7×10^4 HEK293 human embryonal kidney cells (ATCC) were plated into a 35-mm tissue culture dish and maintained in Eagle Modified Essential Medium (EMEM, ATCC) containing 10% heat-inactivated horse serum for 24 h. Expression, reporter (100 ng/dish) and control (2.5 ng/dish) vectors were transfected using LI[…]™ Reagent (GibcoBRL) according to manufacturer's recommendation. At 24 h after transfection, cells were treated with vehicle (0.001% DMSO in medium) or compounds at the indicated concentration and incubated for 24 h. Each treatment was conducted in triplicate. Each culture dish was assayed for firefly luciferase activity normalized by Renilla luciferase activity to account for differences in transfection efficiency. Luciferase activity was measured using the Dual-luciferase Reporter® Assay System (Promega) and a Sirius luminometer (Berthold Detection System, Pforzheim, Germany).

3T3-L1 fibroblasts = experiment: Adipogenesis (triglyceride accumulation) in 3T3-L1 fibroblasts
Description: After two days of growth in 6-well plates, cells were treated either with vehicle (0.1% DMSO) or with compounds for ten days. Fresh medium with compounds or vehicle was replenished every 48 h. Cells were washed with PBS twice and fixed in 10% formalin (Sigma) in PBS. After washing in PBS, cells were stained with freshly diluted Oil Red O in isopropanol for 1 h at room temperature. The cells were washed five times with PBS and visualized under an Olympus BH2 microscope. Quantitative accumulation of triglyceride was also measured under similar experimental conditions, except in this case cells were plated in 100-mm tissue culture dishes. Triglyceride was extracted with methanol:chloroform (2:1) mixture. […] Extracted triglyceride was measured by a colorimetric assay (GPO-Trinder, Sigma) according to manufacturer instructions.
After 14 days cells were stained with Oil Red O, counterstained with methylene blue for visual assessment (FIG. 23B) and assayed for triglyceride accumulation.

IkappaB = experiment: LPS-stimulated phosphorylation of IkappaB in RAW 264.7 cells; type: cell-based; conditions: RAW 264.7 cells, 3, 10 or 30, LPS plus IFN-gamma, anti-phospho-IkappaB blot

SMILES: COC(=O)C(=Cc1cc(OC)cc(OC)c1)c1ccc(Oc2ccc(CC3SC(=O)NC3=O)cc2)cc1 (stereo not shown) [Compound 11, 3-(3,5-Dimethoxyphenyl)-2-{4-[4-(2,4-dioxothiazolidin-5-ylmethyl)-phenoxy]-phenyl}-acrylic acid methyl ester]
- transactivation potency less than that of rosiglitazone (Human PPAR-γ2): ≤ 30 fold
- EC50 (Human PPAR-γ2; HEK293 cells, human PPAR-gamma2, ± SE, n=5, FIG. 24, read-out: EC50 for transactivation of PPRE-Luc reporter): 284 ± 36 nM
- EC50 (Human PPAR-γ2; cells transfected with human PPAR-gamma2, 24 hours, non-linear regression, read-out: EC50, induction of PPAR-γ mediated luciferase activity): 280 nM
- PPAR-gamma transactivation potency relative to a comparator, in words (Human PPAR-γ2; in vitro transactivation assay): approximately one-thirtieth the activity of rosiglitazone
- maximal triglyceride accumulated, increase over control (3T3-L1 fibroblasts; 3T3-L1 fibroblasts, 0.1, 1, 10 μM, no dexamethasone, insulin, IBMX, FIG. 23A): 3.96 fold
- cytotoxic concentrations (3T3-L1 fibroblasts; 3T3-L1 system, data not shown): ≥ 100 µM
- inhibition of the phosphorylation of IkappaB (IkappaB): dose-dependent inhibition
